This passage reports T/C results from PubChem BioAssay AID248 (DTP/NCI, 2004).

Where “and” joins values, the source holds several entries; their conditions need not be identical. Equal values may be shown once. Toxic doses and inconclusive results are not listed.

The experiment concerns L1210 leukemia ip in BDF1 mice, survival T/C. Put plainly: NCI In Vivo Anticancer Drug Screen. Data for tumor model L1210 Leukemia (intraperitoneal) in B6D2F1 (BDF1) mice. The settings on record: endpoint: mean survival time, higher = longer survival. The essentials: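 Tumor was transplanted into mice, which were then dosed with test compound or vehicle alone. Survival was recorded for each group, and the treated figure was expressed relative to the control figure.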

Setting [1] is: dose: 100.0 mg/kg/injection, schedule: Q04DX003 (ip), vehicle: Klucel (hydroxypropylcellulose) (HPC).
Where [2] appears, read: dose: 200.0 mg/kg/injection, schedule: Q04DX003 (ip), vehicle: Klucel (hydroxypropylcellulose) (HPC).
[3] abbreviates: dose: 100.0 mg/kg/injection, schedule: Q04DX002 (ip), vehicle: Klucel (hydroxypropylcellulose) (HPC).
The mark [4] stands for this setting: dose: 200.0 mg/kg/injection, schedule: Q04DX002 (ip), vehicle: Klucel (hydroxypropylcellulose) (HPC).
Setting [5] is: dose: 100.0 mg/kg/injection, schedule: Q04DX002 (ip), vehicle: saline with Tween-80.
Where [6] appears, read: dose: 200.0 mg/kg/injection, schedule: Q04DX002 (ip), vehicle: saline with Tween-80.

Turning to `c1nc(SC2CCCC2)c2[nH]cnc2n1`, the T/C was 106 % of control (dose: 5.0 mg/kg/injection, schedule: Q01DX Z (ip), vehicle: carboxymethylcellulose (CMC)); 103 % of control (dose: 10.0 mg/kg/injection, schedule: Q01DX Z (ip), vehicle: carboxymethylcellulose (CMC)); 108 % of control (dose: 10.0 mg/kg/injection, schedule: Q01DX Z (oral), vehicle: carboxymethylcellulose (CMC)); 112 % of control (dose: 21.0 mg/kg/injection, schedule: Q01DX Z (ip), vehicle: carboxymethylcellulose (CMC)); 108 % of control (dose: 21.0 mg/kg/injection, schedule: Q01DX Z (oral), vehicle: carboxymethylcellulose (CMC)); 115 % of control (dose: 25.0 mg/kg/injection, schedule: Q01DX009 (ip), vehicle: carboxymethylcellulose (CMC)). The T/C is, setting by setting: (dose: 42.0 mg/kg/injection, schedule: Q01DX Z (ip), vehicle: carboxymethylcellulose (CMC)) 112 % of control; (dose: 42.0 mg/kg/injection, schedule: Q01DX Z (oral), vehicle: carboxymethylcellulose (CMC)) 106 % of control; (dose: 42.5 mg/kg/injection, schedule: Q01DX Z (ip), vehicle: carboxymethylcellulose (CMC)) 122 % of control; (dose: 50.0 mg/kg/injection, schedule: Q01DX009 (ip), vehicle: carboxymethylcellulose (CMC)) 119 % of control; (dose: 84.0 mg/kg/injection, schedule: Q01DX Z (oral), vehicle: carboxymethylcellulose (CMC)) 150 % of control; (dose: 85.0 mg/kg/injection, schedule: Q01DX Z (ip), vehicle: carboxymethylcellulose (CMC)) 163 % of control. For the same molecule, the T/C (dose: 176.0 mg/kg/injection, schedule: Q01DX001 (ip), vehicle: carboxymethylcellulose (CMC)) is 98 % of control; the T/C (dose: 264.0 mg/kg/injection, schedule: Q01DX001 (ip), vehicle: carboxymethylcellulose (CMC)) is 100 % of control; the T/C (dose: 340.0 mg/kg/injection, schedule: Q01DX Z (ip), vehicle: carboxymethylcellulose (CMC)) is 110 % of control; the T/C (dose: 340.0 mg/kg/injection, schedule: Q01DX Z (oral), vehicle: carboxymethylcellulose (CMC)) was 152 % of control; the T/C (dose: 400.0 mg/kg/injection, schedule: Q01DX001 (ip), vehicle: carboxymethylcellulose (CMC)) was 93 % of control.

`COC(=O)C1CN=NC1C(=O)OC` (stereo not given): the T/C was 98 % of control (dose: 100.0 mg/kg/injection, schedule: Q04DX003 (ip), vehicle: acetone); 96 % of control (dose: 200.0 mg/kg/injection, schedule: Q04DX003 (ip), vehicle: acetone); 101 % of control (dose: 400.0 mg/kg/injection, schedule: Q04DX003 (ip), vehicle: acetone).

As to `O=C(NCCCl)Nc1ccccc1`, the T/C reads like this: (dose: 100.0 mg/kg/injection, schedule: Q01DX001 (ip), vehicle: Klucel (hydroxypropylcellulose) (HPC)) 93 % of control; under setting [1], 122 % of control; (dose: 200.0 mg/kg/injection, schedule: Q01DX001 (ip), vehicle: Klucel (hydroxypropylcellulose) (HPC)) 101 % of control; under setting [2], 104 % of control.

In the case of `CC(=O)OC[C@]12CCC(C)=CC1O[C@@H]1C(OC(C)=O)[C@@H](O)[C@@]2(C)[C@]12CO2` (stereo not given in full), the T/C is, setting by setting: (dose: 0.4 mg/kg/injection, schedule: Q01DX009 (ip), vehicle: other) 97 % of control; (dose: 0.8 mg/kg/injection, schedule: Q01DX009 (ip), vehicle: other) 114 % of control; (dose: 1.6 mg/kg/injection, schedule: Q01DX009 (ip), vehicle: other) 114 % of control; (dose: 3.2 mg/kg/injection, schedule: Q01DX009 (ip), vehicle: other) 116 % of control.

`CCNC(=O)Nc1ccccc1`: the T/C by setting is: under setting [3], 93 % of control; under setting [4], 96 % of control.

Take `O=C(N/N=C/c1ccc(N(CCCl)CCCl)cc1)c1ccc(C(=O)N/N=C/c2ccc(N(CCCl)CCCl)cc2)cc1`: the T/C reads like this: (dose: 50.0 mg/kg/injection, schedule: Q01DX009 (ip), vehicle: Klucel (hydroxypropylcellulose) (HPC)) 98 % of control; (dose: 100.0 mg/kg/injection, schedule: Q01DX009 (ip), vehicle: Klucel (hydroxypropylcellulose) (HPC)) 90 % of control; under setting [1], 95 % of control; under setting [2], 100 % of control.

`Oc1ccc(N=Cc2c(O)ccc3ccccc23)cc1`: the T/C is, setting by setting: (dose: 200.0 mg/kg/injection, schedule: Q01DX001 (ip), vehicle: other) 90 % of control; (dose: 400.0 mg/kg/injection, schedule: Q01DX001 (ip), vehicle: other) 91 % of control.

`CCCN(CCC)C(=S)CC`: the T/C runs as follows: under setting [5], 94 % of control; under setting [6], 98 % of control.

As to `COc1ccc(CCOC(C)=O)cc1OC`, the T/C is 102 % of control under setting [3]; 97 % of control under setting [4]; 97 % of control (dose: 400.0 mg/kg/injection, schedule: Q04DX002 (ip), vehicle: Klucel (hydroxypropylcellulose) (HPC)).

On to `Cc1cc(N(CCCl)CCCl)c(C)cc1NC(=O)c1ccccc1`, for which the T/C runs as follows: (dose: 0.75 mg/kg/injection, schedule: Q01DX009 (ip), vehicle: other) 109 % of control; (dose: 1.5 mg/kg/injection, schedule: Q01DX009 (ip), vehicle: other) 105 % of control; (dose: 3.0 mg/kg/injection, schedule: Q01DX009 (ip), vehicle: other) 124 % of control; (dose: 5.0 mg/kg/injection, schedule: Q01DX001 (ip), vehicle: other) 118 % of control; (dose: 6.0 mg/kg/injection, schedule: Q01DX009 (ip), vehicle: carboxymethylcellulose (CMC)) 119 % of control; (dose: 10.0 mg/kg/injection, schedule: Q01DX001 (ip), vehicle: other) 114 % of control. The T/C is, setting by setting: (dose: 10.0 mg/kg/injection, schedule: Q01DX001 (ip), vehicle: saline) 117 % of control; (dose: 10.0 mg/kg/injection, schedule: Q01DX009 (ip), vehicle: carboxymethylcellulose (CMC)) 119 % of control; (dose: 17.6 mg/kg/injection, schedule: Q01DX001 (ip), vehicle: carboxymethylcellulose (CMC)) 111 % of control; (dose: 17.6 mg/kg/injection, schedule: Q01DX001 (ip), vehicle: other) 110 % of control and 115 % of control; (dose: 18.0 mg/kg/injection, schedule: Q01DX009 (ip), vehicle: carboxymethylcellulose (CMC)) 117 % of control; (dose: 20.0 mg/kg/injection, schedule: Q01DX001 (ip), vehicle: other) 122 % of control. The T/C was 96 % of control (dose: 20.0 mg/kg/injection, schedule: Q01DX001 (ip), vehicle: saline); 120 % of control (dose: 26.0 mg/kg/injection, schedule: Q01DX001 (ip), vehicle: carboxymethylcellulose (CMC)); 115 % of control (dose: 26.0 mg/kg/injection, schedule: Q01DX001 (ip), vehicle: other); 101 % of control (dose: 30.0 mg/kg/injection, schedule: Q01DX009 (ip), vehicle: carboxymethylcellulose (CMC)); 96 % of control (dose: 30.0 mg/kg/injection, schedule: Q01DX009 (ip), vehicle: other); 124 % of control (dose: 40.0 mg/kg/injection, schedule: Q01DX001 (ip), vehicle: other). The T/C by setting is: (dose: 40.0 mg/kg/injection, schedule: Q01DX001 (ip), vehicle: saline) 122 % of control; (dose: 80.0 mg/kg/injection, schedule: Q01DX001 (ip), vehicle: carboxymethylcellulose (CMC)) 120 % of control; (dose: 80.0 mg/kg/injection, schedule: Q01DX001 (ip), vehicle: saline) 114 % of control; (dose: 120.0 mg/kg/injection, schedule: Q01DX001 (ip), vehicle: carboxymethylcellulose (CMC)) 88 % of control.

For the molecule `C[C@@H]1C[C@](O)([C@@H](C)Cl)C(=O)O[C@@H]2CCN3CC=C(COC(=O)[C@]1(C)O)[C@H]23`, the T/C is, setting by setting: (dose: 3.0 mg/kg/injection, schedule: Q01DX Z (ip), vehicle: saline) 107 % of control; (dose: 6.0 mg/kg/injection, schedule: Q01DX Z (ip), vehicle: saline) 103 % of control; (dose: 12.0 mg/kg/injection, schedule: Q01DX Z (ip), vehicle: saline) 100 % of control; (dose: 24.0 mg/kg/injection, schedule: Q01DX Z (ip), vehicle: saline) 103 % of control.

Take `CCOC(=O)C1(C#N)C(=O)CSC1=Nc1ccccc1Cl` (stereo not given): the T/C was 95 % of control under setting [5]; 102 % of control under setting [6]; 95 % of control (dose: 400.0 mg/kg/injection, schedule: Q04DX002 (ip), vehicle: saline with Tween-80).
